Measured values from patent US7842802B2, “Vinorelbine derivatives” (priority 2003, dated 2010).
Where two headings read alike, the source gives them in different places.

What was measured:
[1] = system: HeLa S-3 human cervical carcinoma cell line; assay: HeLa GI50 determination (SRB); format: cell-based; settings: Homo sapiens, HeLa S3, 48 h, read-out: HeLa Cells GI50
Description: Growth inhibition (GI50) values were measured on the human cervical carcinoma cell line, HeLa S-3, which were selected for growth on plastic. The HeLa cell assay was based on the description of Skehan et al., J. Natl. Cancer Inst., 82:1107-12 (1990), which is hereby incorporated by reference in its entirety. HeLa cells were plated at 2×10^4 cells/well in 96 well plates. One day later, a control plate was fixed by the addition of TCA to 5%. After five rinses with tap water, the plate was air-dried and stored at 4° C. Test compounds were added to the remaining plates at 10-fold dilutions. Two days later, all plates were fixed as described above. Cells were then stained by the addition of 100 μL per well of 0.4% sulforhodamine B (SRB) in 1% acetic acid for 30 min at 4° C. Wells were then quickly rinsed 5× with 1% acetic acid and allowed to air dry. The SRB was then solubilized by the addition of 100 μL per well of unbuffered 10 mM Tris base. Dye was quantified by measuring absorbance at 490 nm on a Molecular Devices microplate reader. Growth inhibition was calculated according to the following equation: GI=100×(T−T0)/(C−T0), where the optical density (OD) of the test well after 2 days of treatment was T, the OD of the wells in the control plate on day 0 was T0 and C was the OD of untreated wells. Plots of percent growth inhibition versus inhibitor concentration were used to determine the GI50.

[2] = system: MCF-7 human breast carcinoma line; assay: MCF-7 GI50 determination (crystal violet); format: cell-based; settings: Homo sapiens, MCF7, 96 h, read-out: MCF-7 Cells GI50
Description: Growth inhibition (GI50) values were measured on the human breast carcinoma line, MCF-7. MCF-7 cells were plated at 2×10^4 cells/well in 96 well plates and grown for 24 hours in drug free media. On day 2, test compounds were added to the plates at 10-fold dilutions. Four days later, cells were fixed by the addition of glutaraldehyde to 0.75%. After 30 min, the fixed cells were extensively rinsed with distilled water and dried at room temperature for one hour. The cells were then stained with a 0.2% crystal violet solution for one hour at room temperature. Unbound stain was removed by ten rinses with tap water and plates were allowed to air dry for 30 min. The crystal violet was then solubilized by the addition of 10% acetic acid for 15 min and quantified by measuring absorbance at 570 nm on a Molecular Devices microplate reader. Growth inhibition was calculated according to the following equation: GI=[…], where the optical density (OD) of the test well after 4 days of treatment was T, the OD of the wells in the control plate on day 0 was T0. Plots of percent growth inhibition versus inhibitor concentration were used to determine the GI50.

[3] = HeLa S-3, 2 days of treatment, SRB
[4] = MCF-7, 4 days of treatment, crystal violet

SMILES: CCC1=C[C@H]2CN(C1)Cc1c([nH]c3ccc(C#N)cc13)[C@@](C(=O)OC)(c1cc3c(cc1OC)N(C)[C@H]1[C@@](O)(C(=O)OC)[C@H](OC(C)=O)C4C(CC)=CCN5CC[C@]31[C@H]45)C2 (stereo partly drawn) [Example 25, 11′-cyanovinorelbine]
- GI50 [1, 3]: 1 nM
- GI50 [2, 4]: 6 nM

SMILES: C=Cc1ccc2[nH]c3c(c2c1)CN1CC(CC)=C[C@@H](C1)C[C@]3(C(=O)OC)c1cc2c(cc1OC)N(C)[C@H]1[C@@](O)(C(=O)OC)[C@H](OC(C)=O)C3C(CC)=CCN4CC[C@]21[C@H]34 (stereo partly drawn) [Example 3, 11′-vinylvinorelbine]
- GI50 [1, 3]: 3 nM
- GI50 [2, 4]: 7 nM

SMILES: CCC1=C[C@H]2CN(C1)Cc1c([nH]c3ccc(C(=O)OCC(Cl)Cl)cc13)[C@@](C(=O)OC)(c1cc3c(cc1OC)N(C)[C@H]1[C@@](O)(C(=O)OC)[C@H](OC(C)=O)C4C(CC)=CCN5CC[C@]31[C@H]45)C2 (stereo partly drawn) [Example 29, 11′-(2,2-dichloroethoxycarbonyl)vinorelbine]
- GI50 [1, 3]: 70 nM
- GI50 [2, 4]: 300 nM

SMILES: CCC1=C[C@H]2CN(C1)Cc1c([nH]c3ccc(SCCCCO)cc13)[C@@](C(=O)OC)(c1cc3c(cc1OC)N(C)[C@H]1[C@@](O)(C(=O)OC)[C@H](OC(C)=O)C4C(CC)=CCN5CC[C@]31[C@H]45)C2 (stereo partly drawn) [Example 12, 11′-(4-hydroxybutylsulfanyl)vinorelbine]
- GI50 [1, 3]: 20 nM
- GI50 [2, 4]: 40 nM

SMILES: CCC1=C[C@H]2CN(C1)Cc1c([nH]c3ccc(C(=O)OC)cc13)[C@@](C(=O)OC)(c1cc3c(cc1OC)N(C)[C@H]1[C@@](O)(C(=O)OC)[C@H](OC(C)=O)C4C(CC)=CCN5CC[C@]31[C@H]45)C2 (stereo partly drawn) [Example 27, 11′-(methoxycarbonyl) vinorelbine]
- GI50 [1, 3]: 30 nM
- GI50 [2, 4]: 50 nM

SMILES: CCC1=C[C@H]2CN(C1)Cc1c([nH]c3ccc(SC)cc13)[C@@](C(=O)OC)(c1cc3c(cc1OC)N(C)[C@H]1[C@@](O)(C(=O)OC)[C@H](OC(C)=O)C4C(CC)=CCN5CC[C@]31[C@H]45)C2 (stereo partly drawn) [Example 10, 11′-(methylsulfanyl) vinorelbine]
- GI50 [1, 3]: 0.3 nM
- GI50 [2, 4]: 1 nM

SMILES: CCC1=C[C@H]2CN(C1)Cc1c([nH]c3ccc(SCCCO)cc13)[C@@](C(=O)OC)(c1cc3c(cc1OC)N(C)[C@H]1[C@@](O)(C(=O)OC)[C@H](OC(C)=O)C4C(CC)=CCN5CC[C@]31[C@H]45)C2 (stereo partly drawn) [Example 13, 11′-(3-hydroxypropylsulfanyl)vinorelbine]
- GI50 [1, 3]: 20 nM
- GI50 [2, 4]: 30 nM

SMILES: CCC1=C[C@H]2CN(C1)Cc1c([nH]c3ccc([S+]([O-])CCCO)cc13)[C@@](C(=O)OC)(c1cc3c(cc1OC)N(C)[C@H]1[C@@](O)(C(=O)OC)[C@H](OC(C)=O)C4C(CC)=CCN5CC[C@]31[C@H]45)C2 (stereo partly drawn) [Example 20, 11′-(3-hydroxypropylsulfinyl)vinorelbine]
- GI50 [1, 3]: 40 nM
- GI50 [2, 4]: 300 nM

SMILES: CCC1=C[C@H]2CN(C1)Cc1c([nH]c3ccc(/C=C/C(=O)O)cc13)[C@@](C(=O)OC)(c1cc3c(cc1OC)N(C)[C@H]1[C@@](O)(C(=O)OC)[C@H](OC(C)=O)C4C(CC)=CCN5CC[C@]31[C@H]45)C2 (stereo partly drawn) [Example 6, 11′-(carboxyvinyl) vinorelbine]
- GI50 [1, 3]: 800 nM
- GI50 [2, 4]: > 1000 nM

SMILES: CCC1=C[C@H]2CN(C1)Cc1c([nH]c3ccc(C)cc13)[C@@](C(=O)OC)(c1cc3c(cc1OC)N(C)[C@H]1[C@@](OC)(C(=O)OC)[C@H](OC(C)=O)C4C(CC)=CCN5CC[C@]31[C@H]45)C2 (stereo partly drawn) [Example 33, 3,11′-dimethyl vinorelbine]
- GI50 [1, 3]: 30 nM
- GI50 [2, 4]: 50 nM

SMILES: CCC1=C[C@H]2CN(C1)Cc1c([nH]c3ccc(-c4ccccc4)cc13)[C@@](C(=O)OC)(c1cc3c(cc1OC)N(C)[C@H]1[C@@](O)(C(=O)OC)[C@H](OC(C)=O)C4C(CC)=CCN5CC[C@]31[C@H]45)C2 (stereo partly drawn) [Example 30, 11′-phenylvinorelbine]
- GI50 [1, 3]: 70 nM
- GI50 [2, 4]: 300 nM

SMILES: CCC1=C[C@H]2CN(C1)Cc1c([nH]c3ccc(SCC(=O)OC)cc13)[C@@](C(=O)OC)(c1cc3c(cc1OC)N(C)[C@H]1[C@@](O)(C(=O)OC)[C@H](OC(C)=O)C4C(CC)=CCN5CC[C@]31[C@H]45)C2 (stereo partly drawn) [Example 9, 11′-(methoxycarbonylmethylsulfanyl) vinorelbine]
- GI50 [1, 3]: 20 nM
- GI50 [2, 4]: 30 nM

SMILES: CCC1=C[C@H]2CN(C1)Cc1c([nH]c3ccc(SCCO)cc13)[C@@](C(=O)OC)(c1cc3c(cc1OC)N(C)[C@H]1[C@@](O)(C(=O)OC)[C@H](OC(C)=O)C4C(CC)=CCN5CC[C@]31[C@H]45)C2 (stereo partly drawn) [Example 14, 11′-(2-hydroxyethylsulfanyl)vinorelbine]
- GI50 [1, 3]: 30 nM
- GI50 [2, 4]: 50 nM

SMILES: CCC1=C[C@H]2CN(C1)Cc1c([nH]c3ccc([S+]([O-])CCO)cc13)[C@@](C(=O)OC)(c1cc3c(cc1OC)N(C)[C@H]1[C@@](O)(C(=O)OC)[C@H](OC(C)=O)C4C(CC)=CCN5CC[C@]31[C@H]45)C2 (stereo partly drawn) [Example 19, 11′-(3-hydroxyethylsulfinyl)vinorelbine]
- GI50 [1, 3]: 300 nM
- GI50 [2, 4]: > 1000 nM

SMILES: CCSc1ccc2[nH]c3c(c2c1)CN1CC(CC)=C[C@@H](C1)C[C@]3(C(=O)OC)c1cc2c(cc1OC)N(C)[C@H]1[C@@](O)(C(=O)OC)[C@H](OC(C)=O)C3C(CC)=CCN4CC[C@]21[C@H]34 (stereo partly drawn) [Example 11, 11′-(ethylsulfanyl) vinorelbine]
- GI50 [1, 3]: 5 nM
- GI50 [2, 4]: 20 nM

SMILES: CCC1=C[C@H]2CN(C1)Cc1c([nH]c3ccc(C#CCOC)cc13)[C@@](C(=O)OC)(c1cc3c(cc1OC)N(C)[C@H]1[C@@](O)(C(=O)OC)[C@H](OC(C)=O)C4C(CC)=CCN5CC[C@]31[C@H]45)C2 (stereo partly drawn) [Example 24, 11′-(3-methoxypropynyl)vinorelbine]
- GI50 [1, 3]: 100 nM
- GI50 [2, 4]: 300 nM

SMILES: CCC1=C[C@H]2CN(C1)Cc1c([nH]c3ccc(I)cc13)[C@@](C(=O)OC)(c1cc3c(cc1OC)N(C)[C@H]1[C@@](OC)(C(=O)OC)[C@H](OC(C)=O)C4C(CC)=CCN5CC[C@]31[C@H]45)C2 (stereo partly drawn) [Example 34, 3-methyl-11′-iodo vinorelbine]
- GI50 [1, 3]: 30 nM
- GI50 [2, 4]: 30 nM

SMILES: CCC1=C[C@H]2CN(C1)Cc1c([nH]c3ccc(-c4c(C)noc4C)cc13)[C@@](C(=O)OC)(c1cc3c(cc1OC)N(C)[C@H]1[C@@](O)(C(=O)OC)[C@H](OC(C)=O)C4C(CC)=CCN5CC[C@]31[C@H]45)C2 (stereo partly drawn) [Example 32, 11′-(3,5-dimethylisoxazol-4yl)vinorelbine]
- GI50 [1, 3]: 300 nM
- GI50 [2, 4]: 400 nM

SMILES: CCC1=C[C@H]2CN(C1)Cc1c([nH]c3ccc(Nc4ccc(OC)cc4)cc13)[C@@](C(=O)OC)(c1cc3c(cc1OC)N(C)[C@H]1[C@@](O)(C(=O)OC)[C@H](OC(C)=O)C4C(CC)=CCN5CC[C@]31[C@H]45)C2 (stereo partly drawn) [Example 36, 11′-(4-methoxyphenylamino)vinorelbine]
- GI50 [1, 3]: 300 nM
- GI50 [2, 4]: 400 nM

SMILES: CCC1=C[C@H]2CN(C1)Cc1c([nH]c3ccc(/C=C/C(=O)OC(C)(C)C)cc13)[C@@](C(=O)OC)(c1cc3c(cc1OC)N(C)[C@H]1[C@@](O)(C(=O)OC)[C@H](OC(C)=O)C4C(CC)=CCN5CC[C@]31[C@H]45)C2 (stereo partly drawn) [Example 5, 11′-(2-tert-butoxycarbonylvinyl) vinorelbine]
- GI50 [1]: 300 nM
- GI50 [2]: 600 nM

SMILES: CCC1=C[C@H]2CN(C1)Cc1c([nH]c3ccc(SCCC(=O)OC)cc13)[C@@](C(=O)OC)(c1cc3c(cc1OC)N(C)[C@H]1[C@@](O)(C(=O)OC)[C@H](OC(C)=O)C4C(CC)=CCN5CC[C@]31[C@H]45)C2 (stereo partly drawn) [Example 7, 11′-(methoxycarbonylethylsulfanyl) vinorelbine]
- GI50 [1, 3]: 200 nM
- GI50 [2, 4]: 400 nM
